Legend:
Assay type in all cases: in vivo
[1] = test system: morningglory (Ipomoea coccinea); experiment: Test C postemergence morningglory; details: Table C, scale 0 to 100
Source text: (§1) Seeds of plant species selected from blackgrass (Alopecurus myosuroides), ryegrass, Italian (Italian ryegrass, Lolium multiflorum), wheat (winter wheat, Triticum aestivum), galium (catchweed bedstraw, Galium aparine), corn (Zea mays), crabgrass, large (large crabgrass, Digitaria sanguinalis), foxtail, giant (giant foxtail, Setaria faberii), johnsongrass (Sorghum halepense), lambsquarters (Chenopodium album), morningglory (Ipomoea coccinea), yellow (yellow nutsedge, Cyperus esculentus), pigweed (Amaranthus retroflexus), ragweed (common ragweed, Ambrosia elatior), soybean (Glycine max), barnyardgrass (Echinochloa crus-galli), oilseed rape (Brassica napus), waterhemp (common waterhemp, Amaranthus rudis), and velvetleaf (Abutilon theophrasti) were planted into a blend of loam soil and sand and treated preemergence with test chemicals formulated in a non-phytotoxic solvent mixture which included a surfactant. At the same time, plants selected from these crop and weed species and also chickweed (common chickweed, Stellaria media), kochia (Kochia scoparia), and oat, wild (wild oat, Avena fatua) were planted in pots containing Sunshine Redi-Earth® planting medium comprising spaghnum peat moss, vermiculite, starter nutrients and dolomitic limestone and treated with postemergence applications of test chemicals formulated in the same manner. Plants ranged in height from 2 to 18 cm (1- to 4-leaf stage) for postemergence treatments. Treated plants and controls were maintained in a greenhouse for 13 to 15 days, after which time all species were compared to controls and visually evaluated. Plant response ratings, summarized in Table C, are based on a scale of 0 to 100 where 0 is no effect and 100 is complete control. A dash (-) response means no test result.

[2] = test system: johnsongrass (Sorghum halepense); experiment: Test C postemergence johnsongrass; details: Table C, scale 0 to 100
Source text: as §1

[3] = test system: lambsquarters (Chenopodium album); experiment: Test C postemergence lambsquarters; details: Table C, scale 0 to 100
Source text: as §1

[4] = test system: kochia (Kochia scoparia); experiment: Test C postemergence kochia; details: Table C, scale 0 to 100
Source text: as §1

[5] = test system: crabgrass, large (large crabgrass, Digitaria sanguinalis); experiment: Test C postemergence crabgrass, large; details: Table C, scale 0 to 100
Source text: as §1

[6] = test system: ryegrass, Italian (Italian ryegrass, Lolium multiflorum); experiment: Test C postemergence ryegrass, Italian; details: Table C, scale 0 to 100
Source text: as §1

[7] = test system: yellow (yellow nutsedge, Cyperus esculentus); experiment: Test C postemergence yellow nutsedge; details: Table C, scale 0 to 100
Source text: as §1

[8] = test system: waterhemp (common waterhemp, Amaranthus rudis); experiment: Test C postemergence waterhemp; details: Table C, scale 0 to 100
Source text: as §1

[9] = test system: ragweed (common ragweed, Ambrosia elatior); experiment: Test C postemergence ragweed; details: Table C, scale 0 to 100
Source text: as §1

[10] = test system: velvetleaf (Abutilon theophrasti); experiment: Test C preemergence velvetleaf; details: Table C, scale 0 to 100
Source text: as §1

[11] = test system: galium (catchweed bedstraw, Galium aparine); experiment: Test C preemergence galium; details: Table C, scale 0 to 100
Source text: as §1

[12] = test system: morningglory (Ipomoea coccinea); experiment: Test C preemergence morningglory; details: Table C, scale 0 to 100
Source text: as §1

[13] = test system: barnyardgrass (Echinochloa crus-galli); experiment: Test C preemergence barnyardgrass; details: Table C, scale 0 to 100
Source text: as §1

[14] = test system: blackgrass (Alopecurus myosuroides); experiment: Test C preemergence blackgrass; details: Table C, scale 0 to 100
Source text: as §1

[15] = test system: crabgrass, large (large crabgrass, Digitaria sanguinalis); experiment: Test C preemergence crabgrass, large; details: Table C, scale 0 to 100
Source text: as §1

[16] = test system: pigweed (Amaranthus retroflexus); experiment: Test C preemergence pigweed; details: Table C, scale 0 to 100
Source text: as §1

[17] = test system: crabgrass, large (large crabgrass, Digitaria sanguinalis); experiment: Test A preemergence crabgrass, large; details: 0 to 100 scale; for Crabgrass, Large plant response rating: 125 g ai/ha, 0 no effect, 100 complete control; for Plant response rating, Crabgrass, Large: 500 g ai/ha, 0 is no effect, 100 is complete control
Source text: (§2) Seeds of plant species selected from barnyardgrass (Echinochloa crus-galli), kochia (Kochia scoparia), ragweed (common ragweed, Ambrosia elatior), ryegrass, Italian (Italian ryegrass, Lolium multiflorum), crabgrass, large (large crabgrass, Digitaria sanguinalis), foxtail, giant (giant foxtail, Setaria faberii), morningglory (Ipomoea spp.), pigweed (Amaranthus retroflexus), velvetleaf (Abutilon theophrasti), wheat (Triticum aestivum), and corn (Zea mays) were planted into a blend of loam soil and sand and treated preemergence with a directed soil spray using test chemicals formulated in a non-phytotoxic solvent mixture which included a surfactant.
(§3) At the same time, plants selected from these crop and weed species and also blackgrass (Alopecurus myosuroides), and galium (catchweed bedstraw, Galium aparine) were planted in pots containing the same blend of loam soil and sand and treated with postemergence applications of test chemicals formulated in the same manner. Plants ranged in height from 2 to 10 cm and were in the one- to two-leaf stage for the postemergence treatment. Treated plants and untreated controls were maintained in a greenhouse for approximately 10 d, after which time all treated plants were compared to untreated controls and visually evaluated for injury. Plant response ratings, summarized in Table A, are based on a 0 to 100 scale where 0 is no effect and 100 is complete control. A dash (-) response means no test result.

[18] = test system: wheat (Triticum aestivum); experiment: Test A preemergence wheat; details: 0 to 100 scale, 0 no effect, 100 complete control
Source text: as §2, §3

O=C1NCCC(c2cccc(C(F)(F)F)c2)C1C(=O)Nc1ccccc1Cl (racemic) [Compound 17]
5: Plant response rating ([1]; 250 g ai/ha) | Plant response rating ([5]; 31 g ai/ha)
80: Plant response rating ([3]; 250 g ai/ha)
55: Plant response rating ([5]; 250 g ai/ha)
20: Plant response rating ([5]; 62 g ai/ha) | Plant response rating ([5]; 125 g ai/ha)
75: Plant response rating ([3]; 62 g ai/ha)
0: Plant response rating ([1]; 31 g ai/ha) | Plant response rating ([1]; 62 g ai/ha) | Plant response rating ([1]; 125 g ai/ha) | Plant response rating ([2]; 31 g ai/ha) | Plant response rating ([2]; 62 g ai/ha) | Plant response rating ([2]; 125 g ai/ha) | Plant response rating ([2]; 250 g ai/ha) | Plant response rating ([4]; 31 g ai/ha) | Plant response rating ([4]; 62 g ai/ha) | Plant response rating ([4]; 125 g ai/ha) | Plant response rating ([4]; 250 g ai/ha) | Plant response rating ([6]; 31 g ai/ha) | Plant response rating ([6]; 62 g ai/ha) | Plant response rating ([6]; 125 g ai/ha) | Plant response rating ([6]; 250 g ai/ha) | Plant response rating ([7]; 31 g ai/ha) | Plant response rating ([7]; 62 g ai/ha) | Plant response rating ([7]; 125 g ai/ha) | Plant response rating ([7]; 250 g ai/ha) | Plant response rating ([8]; 31 g ai/ha) | Plant response rating ([8]; 62 g ai/ha) | Plant response rating ([8]; 125 g ai/ha) | Plant response rating ([8]; 250 g ai/ha) | Plant response rating ([9]; 31 g ai/ha) | Plant response rating ([9]; 62 g ai/ha) | Plant response rating ([9]; 125 g ai/ha) | Plant response rating ([9]; 250 g ai/ha)

O=C1NCCC(c2cccc(C(F)(F)F)c2)C1C(=O)Nc1ccc(F)c(F)c1F (racemic) [Compound 28]
95: Plant response rating ([13]; 250 g ai/ha)
10: Plant response rating ([10]; 31 g ai/ha)
85: Plant response rating ([15]; 62 g ai/ha)
60: Plant response rating ([13]; 31 g ai/ha)
40: Plant response rating ([14]; 62 g ai/ha)
30: Plant response rating ([12]; 250 g ai/ha)
35: Plant response rating ([14]; 31 g ai/ha)
5: Plant response rating ([12]; 31 g ai/ha) | Plant response rating ([12]; 62 g ai/ha) | Plant response rating ([12]; 125 g ai/ha)
90: Plant response rating ([13]; 125 g ai/ha) | Plant response rating ([14]; 250 g ai/ha) | Plant response rating ([15]; 125 g ai/ha) | Plant response rating ([15]; 250 g ai/ha)
80: Plant response rating ([15]; 31 g ai/ha)
0: Plant response rating ([10]; 62 g ai/ha) | Plant response rating ([11]; 31 g ai/ha) | Plant response rating ([16]; 125 g ai/ha)
70: Plant response rating ([14]; 125 g ai/ha)
20: Plant response rating ([10]; 125 g ai/ha) | Plant response rating ([10]; 250 g ai/ha)
75: Plant response rating ([13]; 62 g ai/ha)

O=C1NCCC(c2cccc(C(F)(F)F)c2)C1C(=O)Nc1cccc(F)c1F (centres unmarked) [Compound 9, N-(2,3-difluorophenyl)-2-oxo-4-[3-(trifluoromethyl)phenyl]-3-piperidinecarboxamide]
30: Plant response rating ([1]; 125 g ai/ha)
95: Plant response rating ([13]; 125 g ai/ha) | Plant response rating ([13]; 250 g ai/ha) | Plant response rating ([15]; 31 g ai/ha) | Plant response rating ([15]; 62 g ai/ha)
45: Plant response rating ([12]; 250 g ai/ha)
35: Plant response rating ([5]; 62 g ai/ha)
40: Plant response rating ([1]; 250 g ai/ha) | Plant response rating ([14]; 62 g ai/ha)
90: Crabgrass, Large plant response rating [17] | Plant response rating ([13]; 62 g ai/ha) | Plant response rating ([14]; 250 g ai/ha)
100: Plant response rating, Crabgrass, Large [17]
20: Plant response rating ([12]; 62 g ai/ha) | Wheat plant response rating ([18]; 125 g ai/ha)
98: Plant response rating ([15]; 125 g ai/ha) | Plant response rating ([15]; 250 g ai/ha)
5: Plant response rating ([10]; 62 g ai/ha) | Plant response rating ([2]; 250 g ai/ha) | Plant response rating ([3]; 125 g ai/ha) | Plant response rating ([12]; 125 g ai/ha) | Plant response rating ([16]; 31 g ai/ha) | Plant response rating ([8]; 62 g ai/ha) | Plant response rating ([8]; 250 g ai/ha) | Plant response rating ([9]; 250 g ai/ha)
50: Plant response rating ([14]; 31 g ai/ha) | Wheat plant response rating ([18]; 500 g ai/ha)
75: Plant response rating ([11]; 250 g ai/ha) | Plant response rating ([13]; 31 g ai/ha) | Plant response rating ([5]; 125 g ai/ha) | Plant response rating ([5]; 250 g ai/ha)
0: Plant response rating ([10]; 31 g ai/ha) | Plant response rating ([10]; 125 g ai/ha) | Plant response rating ([10]; 250 g ai/ha) | Plant response rating ([1]; 31 g ai/ha) | Plant response rating ([1]; 62 g ai/ha) | Plant response rating ([2]; 31 g ai/ha) | Plant response rating ([2]; 62 g ai/ha) | Plant response rating ([2]; 125 g ai/ha) | Plant response rating ([3]; 31 g ai/ha) | Plant response rating ([3]; 62 g ai/ha) | Plant response rating ([3]; 250 g ai/ha) | Plant response rating ([11]; 31 g ai/ha) | Plant response rating ([11]; 62 g ai/ha) | Plant response rating ([11]; 125 g ai/ha) | Plant response rating ([12]; 31 g ai/ha) | Plant response rating ([4]; 31 g ai/ha) | Plant response rating ([4]; 62 g ai/ha) | Plant response rating ([4]; 125 g ai/ha) | Plant response rating ([4]; 250 g ai/ha) | Plant response rating ([5]; 31 g ai/ha) | Plant response rating ([6]; 31 g ai/ha) | Plant response rating ([6]; 62 g ai/ha) | Plant response rating ([6]; 125 g ai/ha) | Plant response rating ([6]; 250 g ai/ha) | Plant response rating ([16]; 62 g ai/ha) | Plant response rating ([16]; 125 g ai/ha) | Plant response rating ([7]; 31 g ai/ha) | Plant response rating ([7]; 62 g ai/ha) | Plant response rating ([7]; 125 g ai/ha) | Plant response rating ([7]; 250 g ai/ha) | Plant response rating ([8]; 31 g ai/ha) | Plant response rating ([8]; 125 g ai/ha) | Plant response rating ([9]; 31 g ai/ha) | Plant response rating ([9]; 62 g ai/ha) | Plant response rating ([9]; 125 g ai/ha)
80: Plant response rating ([14]; 125 g ai/ha)
10: Plant response rating ([16]; 250 g ai/ha)

O=C1NCCC(c2cccc(C(F)(F)F)c2)C1C(=O)Nc1ccccc1C(F)(F)F (centres unmarked) [Compound 10, 2-oxo-N-[2-(trifluoromethyl)phenyl)-4-[3-(trifluoromethyl)phenyl]-3-piperidinecarboxamide]
90: Crabgrass, Large plant response rating [17]
0: Wheat plant response rating ([18]; 125 g ai/ha) | Wheat plant response rating ([18]; 500 g ai/ha)
100: Plant response rating, Crabgrass, Large [17]

Reference: patent US9944602B2, “Piperidinone herbicides” (E. I. DU PONT DE NEMOURS AND COMPANY, priority 2014, dated 2018)
